{
  "source": "patent US5114935A",
  "about": "“Substituted 6-benzyl-2H-3,4,5,6-tetrahydro-(1,3)-oxazines” (Dr. Karl Thomae GmbH, priority 1989, dated 1992)",
  "key": {"[1]": {"tested_on": "mechanically provoked coughing", "experiment": "Antitussive activity: mechanically provoked coughing in anaesthetised cats", "assay_type": "in vivo, cat", "conditions": "for ED50: Felis catus, iv, read-out: ED50 after parallel adjustment (50% reduction in the number of coughs)", "experimental": "The antitussive activity of the compound 6-(p-chlorobenzyl)-3,5,6-trimethyl-2H-3, 4, 5, 6-tetrahydro-oxazine (1,3)-hydrochloride was tested as follows:\n33 male and female cats with a body weight of 3.4 to 4.5 kg were anaesthetised with pentobarbital-Na (45 mg/kg as an initial bolus i.p. and then, spread throughout the experiment, several times as required, 7.5 or 15 mg/kg i.v.). Care was taken to keep the animals at about stage 1 to 2 (Guedel) of the tolerance stage.\nCoughing fits were provoked mechanically by the insertion of a plastic catheter with a rounded tip, diameter about 1.5 mm, into the trachea as far as the bifurcation. At each time of irritation, a series of 3 stimuli were carried out at intervals of about 30 seconds. The coughing fits were always provoked 5, 25 and 45 minutes after administration of the test substance or vehicle.\nThe test substance was administered as a solution in 0.9% NaCl solution through a catheter in the V. femoralis. The injected volume was not more than 0.5 ml/kg. Before administration of the substance, the effect of the vehicle was tested on each animal.\nBy linear regression analysis and linear covariance analysis, the ED50 value (50% reduction in the number of coughs) was determined after parallel adjustment (Table 2)."}, "[2]": {"tested_on": "opiate receptors", "experiment": "Test of Binding to the Opiate Receptor: inhibition of 3H-diprenorphine binding", "set-up": "species or system rat", "conditions": "up to 100 μM; 0.5 nM 3H-diprenorphine"}},
  "note": "Counter-ions that a name gives are not always drawn. Like-named read-outs stand apart in the source and are kept apart here.",
  "data": [
    {"smiles": "CC1CN(C)COC1(C)Cc1ccc(Cl)cc1", "note": "(stereo not drawn) [Active substance, 6-(p-chloro-benzyl)-3,5,6-trimethyl-2H-3,4,5,6-tetrahydro-oxazine(1,3)-hydrochloride]", "values": [
      {"measurement": "Percentage inhibition of coughing, MW ± SE", "setting": "[1]; 0.5 mg/kg i.v., after 5 minutes, n=5", "value": "26.7 ± 8.5", "unit": "%"},
      {"measurement": "Percentage inhibition of coughing, MW ± SE", "setting": "[1]; 0.5 mg/kg i.v., after 25 minutes, n=5", "value": "16.7 ± 10.5", "unit": "%"},
      {"measurement": "Percentage inhibition of coughing, MW ± SE", "setting": "[1]; 0.5 mg/kg i.v., after 45 minutes, n=5", "value": "23.3 ± 10.0", "unit": "%"},
      {"measurement": "Percentage inhibition of coughing, MW ± SE", "setting": "[1]; 0.705 mg/kg i.v., after 5 minutes, n=5", "value": "23.3 ± 6.7", "unit": "%"},
      {"measurement": "Percentage inhibition of coughing, MW ± SE", "setting": "[1]; 0.705 mg/kg i.v., after 25 minutes, n=5", "value": "13.3 ± 6.2", "unit": "%"},
      {"measurement": "Percentage inhibition of coughing, MW ± SE", "setting": "[1]; 0.705 mg/kg i.v., after 45 minutes, n=5", "value": "13.3 ± 3.3", "unit": "%"},
      {"measurement": "Percentage inhibition of coughing, MW ± SE", "setting": "[1]; 1.0 mg/kg i.v., after 5 minutes, n=5", "value": "33.3 ± 18.3", "unit": "%"},
      {"measurement": "Percentage inhibition of coughing, MW ± SE", "setting": "[1]; 1.0 mg/kg i.v., after 25 minutes, n=5", "value": "40.0 ± 16.3", "unit": "%"},
      {"measurement": "Percentage inhibition of coughing, MW ± SE", "setting": "[1]; 1.0 mg/kg i.v., after 45 minutes, n=5", "value": "36.7 ± 3.3", "unit": "%"},
      {"measurement": "Percentage inhibition of coughing, MW ± SE", "setting": "[1]; 1.41 mg/kg i.v., after 5 minutes, n=5", "value": "63.3 ± 13.3", "unit": "%"},
      {"measurement": "Percentage inhibition of coughing, MW ± SE", "setting": "[1]; 1.41 mg/kg i.v., after 25 minutes, n=5", "value": "53.3 ± 16.2", "unit": "%"},
      {"measurement": "Percentage inhibition of coughing, MW ± SE", "setting": "[1]; 1.41 mg/kg i.v., after 45 minutes, n=5", "value": "50.0 ± 18.3", "unit": "%"},
      {"measurement": "Percentage inhibition of coughing, MW ± SE", "setting": "[1]; 2.0 mg/kg i.v., after 5 minutes, n=5", "value": "33.3 ± 17.5", "unit": "%"},
      {"measurement": "Percentage inhibition of coughing, MW ± SE", "setting": "[1]; 2.0 mg/kg i.v., after 25 minutes, n=5", "value": "53.3 ± 14.3", "unit": "%"},
      {"measurement": "Percentage inhibition of coughing, MW ± SE", "setting": "[1]; 2.0 mg/kg i.v., after 45 minutes, n=5", "value": "36.7 ± 17.0", "unit": "%"},
      {"measurement": "Percentage inhibition of coughing, MW ± SE", "setting": "[1]; 2.83 mg/kg i.v., after 5 minutes, n=5", "value": "36.7 ± 14.3", "unit": "%"},
      {"measurement": "Percentage inhibition of coughing, MW ± SE", "setting": "[1]; 2.83 mg/kg i.v., after 25 minutes, n=5", "value": "43.3 ± 13.5", "unit": "%"},
      {"measurement": "Percentage inhibition of coughing, MW ± SE", "setting": "[1]; 2.83 mg/kg i.v., after 45 minutes, n=5", "value": "40.0 ± 11.3", "unit": "%"},
      {"measurement": "Percentage inhibition of coughing, MW ± SE", "setting": "[1]; 4.0 mg/kg i.v., after 5 minutes, n=5", "value": "60.0 ± 11.3", "unit": "%"},
      {"measurement": "Percentage inhibition of coughing, MW ± SE", "setting": "[1]; 4.0 mg/kg i.v., after 25 minutes, n=5", "value": "63.3 ± 13.3", "unit": "%"},
      {"measurement": "Percentage inhibition of coughing, MW ± SE", "setting": "[1]; 4.0 mg/kg i.v., after 45 minutes, n=5", "value": "46.7 ± 9.7", "unit": "%"},
      {"measurement": "Percentage inhibition of coughing, MW ± SE", "setting": "[1]; 5.64 mg/kg i.v., after 5 minutes, n=5", "value": "70.0 ± 20.0", "unit": "%"},
      {"measurement": "Percentage inhibition of coughing, MW ± SE", "setting": "[1]; 5.64 mg/kg i.v., after 25 minutes, n=5", "value": "70.0 ± 20.0", "unit": "%"},
      {"measurement": "Percentage inhibition of coughing, MW ± SE", "setting": "[1]; 5.64 mg/kg i.v., after 45 minutes, n=5", "value": "63.3 ± 17.0", "unit": "%"},
      {"measurement": "Percentage inhibition of coughing, MW ± SE", "setting": "[1]; 8.0 mg/kg i.v., after 5 minutes, n=3", "value": "44.4 ± 29.4", "unit": "%"},
      {"measurement": "Percentage inhibition of coughing, MW ± SE", "setting": "[1]; 8.0 mg/kg i.v., after 25 minutes, n=3", "value": "50.0 ± 25.5", "unit": "%"},
      {"measurement": "Percentage inhibition of coughing, MW ± SE", "setting": "[1]; 8.0 mg/kg i.v., after 45 minutes, n=3", "value": "44.4 ± 20.0", "unit": "%"},
      {"measurement": "ED50", "setting": "[1]; 5 min, 5 minutes after administration", "value": 2.6, "unit": "mg/kg"},
      {"measurement": "ED50", "setting": "[1]; 25 min, 25 minutes after administration", "value": 2.4, "unit": "mg/kg"},
      {"measurement": "ED50", "setting": "[1]; 0.75 h, 45 minutes after administration", "value": 3.2, "unit": "mg/kg"},
      {"measurement": "effect on the number of mechanically provoked coughs", "setting": "[1]; intravenously, 0.5 to 8 mg/kg", "value": "reducing the number of mechanically provoked coughs"},
      {"measurement": "cough-suppressing effect, doses and testing times at which observed", "setting": "[1]; intravenously, 0.5 to 8 mg/kg, 5, 25 and 45 minutes", "value": "observed from the lowest administered dose upwards, at every testing time"},
      {"measurement": "inhibition of 3H-diprenorphine binding", "setting": "[2]", "value": "no inhibition"}
    ]}
  ]
}
